# Measurements: patent US12564595B2, “Prophylactic and therapeutic pharmaceutical agent for HIV infectious diseases characterized by comprising combination of integrase inhibitor and anti-HIV agent” (Shionogi & Co., Ltd., priority 2019, dated 2026)
# Experiments:
# [1] = test system: HIV mutant strain 1 (E138K/G140S/Q148H/N155H); experiment: Test Example 2: resistance evaluation test (HeLa-CD4 reporter), mutant strain 1; type: cell-based; conditions: FC=EC50 of mutant strain/EC50 of wild strain; HeLa-CD4 cells
# Procedure, shortened: (§1)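 HeLa-CD4 reporter cells were infected with wild-type or mutant HIV in the presence of serially diluted compound and cultured 3 days. Cell lysates were read by chemiluminescent reporter assay after about 1 h at room temperature. Fold change was calculated as mutant EC50 divided by wild-type EC50.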
# [2] = test system: HIV mutant strain 2 (E92Q/E138T/G140S/Q148H); experiment: Test Example 2: resistance evaluation test (HeLa-CD4 reporter), mutant strain 2; type: cell-based; conditions: FC=EC50 of mutant strain/EC50 of wild strain; HeLa-CD4 cells
# Procedure, shortened: as §1
# [3] = test system: HIV mutant strain 3 (E92Q/E138K/G140S/Q148H); experiment: Test Example 2: resistance evaluation test (HeLa-CD4 reporter), mutant strain 3; type: cell-based; conditions: FC=EC50 of mutant strain/EC50 of wild strain; HeLa-CD4 cells
# Method: (§2) A serial dilution series of test samples in 96-well microplates was prepared (50 […]).
# (§3) 2.5×10^4/mL of HeLa-CD4 cell suspension was dispensed into each of the microplates containing test sample, in the amount of 100 μL/well, and HIV virus liquid (wild strain and mutant strain) was then dispensed in an amount of 50 μL/well. Mixing was performed using a plate mixer and culturing was performed for three days in a CO2 incubator. After removing the cultured supernatant of each well by suction, 100 μL of the cell solution buffer in the reporter measurement kit was dispensed thereto, and freezing was conducted in a refrigerator (−80° C.). The plates frozen in the refrigerator were defrosted at room temperature, then mixed using a plate mixer and centrifuged for 5 min at 1,200 rpm. The supernatant of each well was divided to 96-well microplates (BLACK) in the amount of 20 μL in each case. The chemiluminescence reagent in the reporter assay kit was dispensed in the amount of 100 μL in each case, and, after reacting for about 1 h at room temperature, the amount of luminescence was measured using a MicroBeta TRILUX.
# (§4) The degree of resistance (fold change (FC)) of each mutant strain was also calculated using the following formula. FC=EC50 of mutant strain/EC50 of wild strain (Results)
# [4] = test system: HIV mutant strain 4 (T97A/E138T/G140S/Q148H); experiment: Test Example 2: resistance evaluation test (HeLa-CD4 reporter), mutant strain 4; type: cell-based; conditions: FC=EC50 of mutant strain/EC50 of wild strain; HeLa-CD4 cells
# Method: as §2, §3, §4
# [5] = Test Example 8: metabolic stability test; type: in vitro ADME, human; conditions: pooled human liver microsomes, 30 min at 37° C., NADPH, compound concentration 0.5 μmol/L
# Procedure, shortened: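 Pooled human liver microsomes (0.5 mg protein/mL, Tris-HCl pH 7.4) incubated with compound and 1 mmol/L NADPH for 0 or 30 min at 37° C. After methanol/acetonitrile quench, remaining parent was quantified by LC/MS/MS or SPE/MS and expressed as % of the 0 min amount.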
# [6] = target: T1, voltage-gated sodium channel (Nav 1.5 channel) (Homo sapiens, UniProt Q14524); experiment: Test Example 14: Nav test (patch clamp, HEK cells); type: cell-based; conditions: HEK cells expressing Nav 1.5 channel, whole cell patch clamp
# T1 construct: expressed in transfected cells; host or cells: HEK cells
# Method: Using a fully automatic patch clamp system (QPatch: Sophion Bioscience A/S), by the whole cell patch clamp method, the cells were maintained at a membrane potential of −100 mV and the induced INa when a −10 mV depolarization stimulus was applied for 20 msec was recorded. […] From the INa obtained, using analysis software (QPatch: Sophion Bioscience A/S), the absolute value of the maximum peak current was measured, with reference to the current value at the maintained membrane potential.
# HIV [7] = experiment: microbe, parasite or virus in culture; type: cell-based; conditions: Human immunodeficiency virus 1, MT4, 96 h, read-out: EC50 (50% HIV inhibition concentration), MT-4 cells, HIV, cultured four days, MTT; compounds of formula (I) of (A)
# Procedure, shortened: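 MT-4 cells infected with HIV in the presence of serially diluted test samples and cultured four days at CO2 incubator conditions. Cell viability measured by MTT reduction (1 h), solubilised formazan read at 560/690 nm.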
# HIV [8] = experiment: Test Example 3: test for confirmation of combined use effect; type: cell-based; parameters: key to D value (dosewise additivity value): <-0.1 synergy, -0.1 to 0.1 additive, >0.1 antagonism
# HIV [9] = experiment: Test Example 16: anti-HIV activity in the presence of human serum protein (MT-4 cells); type: cell-based; conditions: 100% extrapolation value, PS=4×(EC50 with 25% human serum protein/EC50 with no human serum protein)
# Method: A stage dilution series of the test samples was created on a 96-well microplate (50 μL/well).
# Aliquots of human serum protein solution (human serum protein concentration 50%) were dispensed in the amount of 100 μL/well to a 96-well microplate containing the test sample. This was then left to stand for 1 h at room temperature. Culture medium in the amount of 100 μL/well in each case was dispensed to a serum-free plate for control purposes. Aliquots of MT-4 cells in the amount of 3.0×10^5/well and HIV virus liquid in the amount of 3 μL/well were mixed for the necessary number of wells and reacted for 1 h at 37° C. After the reaction, the cell suspension was centrifuged and the supernatant discarded; aliquots of infected cells were distributed to culture medium in the amount of 50 μL/well and were dispensed in the amount of 50 μL/well in each case into the wells of a 96-well microplate containing test samples and human serum protein (human serum protein concentration: 25%). Mixing was performed using a plate mixer and culturing was performed for four days with a CO2 incubator. […] MTT(3-(4, 5-dimethylthiazol-2-yl)-2, 5-diphenyltetrazolium bromide) liquid in the amount of 30 μL was dispensed to each of the wells. The reaction was performed for 1 h in a CO2 incubator. 150 μL supernatant was removed to avoid aspirating cells from the wells. 150 μL of cell solution was added and thorough mixing was performed, using a plate mixer, until all the cells were dissolved. The optical absorbance on the mixed plate was measured at two wavelengths, namely, 560 nm/690 nm, using a microplate reader.
# Next, the potency shift (PS) was calculated, using the following formula. The PS is the value of the human serum protein concentration, extrapolated to 100%.
# [10] = combination with compound (B) Compound C (CAI)
# [11] = combination with compound (B) GS-6207 (CAI)
# [12] = combination with compound (B) GSK2838232 (maturation inhibitor)
# [13] = combination with compound (B) I′-189 (INLAI)
# [14] = combination with compound (B) Ramipzin (3TC) (polymerase inhibitor)
# [15] = combination with compound (B) VM-1500 (polymerase inhibitor)
# T1 sequence (Q14524 whole entry): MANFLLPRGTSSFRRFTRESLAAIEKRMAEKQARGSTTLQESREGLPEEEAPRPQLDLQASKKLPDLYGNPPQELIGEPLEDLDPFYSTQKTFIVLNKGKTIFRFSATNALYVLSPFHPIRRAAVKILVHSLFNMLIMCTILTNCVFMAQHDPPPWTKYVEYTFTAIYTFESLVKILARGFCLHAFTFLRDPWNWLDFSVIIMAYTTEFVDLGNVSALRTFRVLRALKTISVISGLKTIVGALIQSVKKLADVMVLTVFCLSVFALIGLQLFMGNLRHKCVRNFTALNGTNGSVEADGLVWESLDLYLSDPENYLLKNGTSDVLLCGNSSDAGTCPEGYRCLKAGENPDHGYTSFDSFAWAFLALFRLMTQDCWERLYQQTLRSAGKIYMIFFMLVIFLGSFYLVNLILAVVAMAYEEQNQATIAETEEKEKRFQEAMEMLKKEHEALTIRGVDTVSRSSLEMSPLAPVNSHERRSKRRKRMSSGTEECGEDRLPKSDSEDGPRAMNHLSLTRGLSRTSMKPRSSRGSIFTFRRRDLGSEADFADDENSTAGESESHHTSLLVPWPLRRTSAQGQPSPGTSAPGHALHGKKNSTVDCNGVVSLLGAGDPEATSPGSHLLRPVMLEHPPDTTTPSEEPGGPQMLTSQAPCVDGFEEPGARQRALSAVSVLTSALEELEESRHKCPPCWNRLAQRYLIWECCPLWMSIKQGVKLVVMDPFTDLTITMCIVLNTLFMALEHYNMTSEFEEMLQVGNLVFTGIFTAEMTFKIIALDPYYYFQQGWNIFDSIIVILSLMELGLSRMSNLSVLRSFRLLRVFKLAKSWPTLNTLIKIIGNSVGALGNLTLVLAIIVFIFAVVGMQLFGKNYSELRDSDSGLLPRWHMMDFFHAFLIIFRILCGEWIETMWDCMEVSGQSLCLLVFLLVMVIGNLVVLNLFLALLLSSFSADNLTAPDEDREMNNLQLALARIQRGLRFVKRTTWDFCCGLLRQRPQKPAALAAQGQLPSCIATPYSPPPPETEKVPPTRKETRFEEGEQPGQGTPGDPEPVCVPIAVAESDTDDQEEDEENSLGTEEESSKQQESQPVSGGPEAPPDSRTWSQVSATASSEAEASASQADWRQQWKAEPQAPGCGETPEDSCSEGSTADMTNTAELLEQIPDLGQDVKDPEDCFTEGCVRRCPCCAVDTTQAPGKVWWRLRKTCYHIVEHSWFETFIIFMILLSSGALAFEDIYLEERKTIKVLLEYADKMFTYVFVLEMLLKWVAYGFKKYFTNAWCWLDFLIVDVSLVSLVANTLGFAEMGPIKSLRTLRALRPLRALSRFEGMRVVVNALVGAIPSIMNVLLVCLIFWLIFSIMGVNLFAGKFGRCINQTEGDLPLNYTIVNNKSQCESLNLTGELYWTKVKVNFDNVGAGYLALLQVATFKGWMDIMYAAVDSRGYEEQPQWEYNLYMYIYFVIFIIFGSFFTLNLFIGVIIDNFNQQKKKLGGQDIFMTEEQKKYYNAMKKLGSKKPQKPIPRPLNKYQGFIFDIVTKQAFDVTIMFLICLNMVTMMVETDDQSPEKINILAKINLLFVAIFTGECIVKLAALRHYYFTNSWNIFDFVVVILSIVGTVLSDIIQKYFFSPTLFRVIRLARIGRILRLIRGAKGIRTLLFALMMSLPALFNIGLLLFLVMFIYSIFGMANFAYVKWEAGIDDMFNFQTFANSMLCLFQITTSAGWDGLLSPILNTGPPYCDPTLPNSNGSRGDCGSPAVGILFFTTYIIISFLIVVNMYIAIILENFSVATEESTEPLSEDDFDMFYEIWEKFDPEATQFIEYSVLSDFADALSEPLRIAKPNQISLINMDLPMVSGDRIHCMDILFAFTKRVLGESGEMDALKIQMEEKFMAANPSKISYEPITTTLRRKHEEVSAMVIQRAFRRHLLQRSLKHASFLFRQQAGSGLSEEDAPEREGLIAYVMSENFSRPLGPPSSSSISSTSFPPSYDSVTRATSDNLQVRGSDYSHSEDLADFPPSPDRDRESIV
compound,measurement,setting,value
CN1C(=O)c2c(O)c(=O)c(C(=O)NCc3ccc(F)cc3F)cn2N2CCCC[C@@H]12 [Compound I-032],FC in respect of mutant strain 1 (E138K/G140S/Q148H/N155H),[1],51
same,FC in respect of mutant strain 2 (E92Q/E138T/G140S/Q148H),[2],18
same,FC in respect of mutant strain 3 (E92Q/E138K/G140S/Q148H),[3],Compound I-032: 7.7
same,FC in respect of mutant strain 4 (T97A/E138T/G140S/Q148H),[4],compound I-032: 10
same,Remaining percentage,[5],103%
same,ratio of maximum peak current (INa) on application of compound to that on application of medium,[6],92.1%
CCN1C(=O)c2c(O)c(=O)c(-c3nnc(Cc4ccc(F)cc4F)s3)cn2N2C[C@@H](C)C[C@@H]12 [II-109],EC50,HIV [7],1.2 nM
same,FC in respect of mutant strain 1 (E138K/G140S/Q148H/N155H),[1],4.1
same,FC in respect of mutant strain 2 (E92Q/E138T/G140S/Q148H),[2],2.5
same,D value (dosewise additivity value),HIV [8]; [10],0.071
same,effect of combined use,HIV [8]; [10],Additive (−0.1 to −0.1: additive synergetic effect)
same,D value (dosewise additivity value),HIV [8]; combination with compound (B) Darunavin (PI),−0.143
same,effect of combined use,HIV [8]; combination with compound (B) Darunavir (PI),Weak synergy (−0.2 to −0.1: weak synergetic effect)
same,D value (dosewise additivity value),HIV [8]; [11],−0.059
same,effect of combined use,HIV [8]; [11],Additive (−0.1 to −0.1: additive synergetic effect)
same,D value (dosewise additivity value),HIV [8]; [12],−0.054
same,effect of combined use,HIV [8]; [12],Additive (−0.1 to −0.1: additive synergetic effect)
same,D value (dosewise additivity value),HIV [8]; [13],0.056
same,effect of combined use,HIV [8]; [13],Additive (−0.1 to −0.1: additive synergetic effect)
same,effect of combined use,HIV [8]; combination with compound (B) Lilpiperine (polymerase inhibitor),Additive (−0.1 to −0.1: additive synergetic effect)
same,D value (dosewise additivity value),HIV [8]; [14],−0.145
same,effect of combined use,HIV [8]; [14],Weak synergy (−0.2 to −0.1: weak synergetic effect)
same,D value (dosewise additivity value),HIV [8]; combination with compound (B) Rilpivirine (polymerase inhibitor),−0.096
same,D value (dosewise additivity value),HIV [8]; [15],−0.094
same,effect of combined use,HIV [8]; [15],Additive (−0.1 to −0.1: additive synergetic effect)
same,Remaining percentage,[5],98.3%
same,ratio of maximum peak current (INa) on application of compound to that on application of medium,[6],93.3%
same,potency shift (PS) in the presence of human serum protein,HIV [9],56
